pEC50: −log10 of the molar value.
Columns and labels:
[1] = tested on: SARS Coronavirus 2 recombinant with NanoLuc (SARS-CoV2-NLuc) in A549-hACE2 cells; experiment: microbe, parasite or virus in culture; assay type: cell-based; conditions: A549; read-out: EC50 SARS CoV2 NanoLuc A549 384
[2] = CC50 MT4 cytotoxicity (Cell-Titer Glo); assay type: cell-based; conditions: human
Method in brief: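 Uninfected MT-4 and HEp-2 cells cultured 4-5 days at 37° C with 3-fold serially diluted compound (15 nM to 100,000 nM). Viability read by Cell-Titer Glo luminescence; untreated and 2 μM puromycin wells set 100% and 0%. CC50 from non-linear regression as concentration reducing viability by 50%.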

Plasma stability = assay type: in vitro ADME; parameters: unit not given here; conditions: 37° C., 2 μM substrate
Method in brief: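 Reaction mixture was sampled at 0.05, 0.5, 1, 2, 3 and 4 hr into quench solution containing internal standard, then centrifuged and diluted with water. Remaining analyte was measured by LC-MS on a Q-Exactive using a formic acid/acetonitrile gradient, with 5 ppm mass tolerance.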

[3] = GI S9 stability - no PMSF; assay type: in vitro ADME; parameters: GIS9-HUMAN-NoPMSF T1/2: unit: min; conditions: human intestinal S9, PMSF-free; for half-life at 2 µM: pH 7.4, read-out: GIS9-HUMAN-NoPMSF T1/2
Method in brief: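 Compounds were incubated at 2 μM with PMSF-free intestinal S9 (1 mg/mL protein) in 100 mM PBS, pH 7.4, sampling at 6 time points over 120 min. Parent disappearance and formation of the nucleoside metabolite Reference Compound A were quantified by LC-MS (Q-Exactive) using analyte/internal standard peak area ratios.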

[4] = tested on: Caco-2 cells (clone C2BBe1); experiment: CACO-2 permeability; assay type: in vitro ADME; parameters: unit not given here; conditions: for DM Caco2 A to B: apical to basolateral, donor pH 6.5, receiver pH 7.4; for DM Caco2 B to A: basolateral to apical
Method in brief: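 Caco-2 monolayers grown 21 days on collagen-coated transwells and checked for integrity by TEER. Donor buffer was HBSS/HEPES/glucose pH 6.5 with 200 μM BNPP; receiver was pH 7.4 with BSA. Compounds were dosed apically or basolaterally for A-to-B and B-to-A transport, with receiver sampling at 1 and 2 h, LC-MS/MS analysis and percent recovery.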

[5] = tested on: Respiratory syncytial virus recombinant with luciferase (RSV-Luc5) in HEp-2 cells; experiment: microbe, parasite or virus in culture; assay type: cell-based; conditions: human respiratory syncytial virus, HEp-2, read-out: EC50 RSVFluc-Hep2 384 V2
[6] = tested on: Respiratory syncytial virus recombinant with luciferase (RSV-Luc5) in Normal Human Bronchial Epithelial (NHBE) cells; experiment: microbe, parasite or virus in culture; assay type: cell-based; conditions: read-out: EC50 RSVFluc-NHBE 384 V2

SMILES | pEC50 [1] | CC50 [2] | STA Human Plasma 37 (Plasma stability) | logD (physchem) | half-life at 2 µM [3] | DM Caco2 A to B [4] | DM Caco2 B to A [4] | pEC50 [5] | pEC50 [6] | GIS9-HUMAN-NoPMSF T1/2 [3]
N#CC1(COC(=O)OC[C@H]2O[C@@](C#N)(c3ccc4c(N)ncnn34)[C@H](O)[C@@H]2O)CC1 [Compound 118, ((2R,3S,4R,5R)-5-(4-aminopyrrolo[2,1-f][1,2,4]triazin-7-yl)-5-cyano-3,4-dihydroxytetrahydrofuran-2-yl)methyl ((l-cyanocyclopropyl)methyl) carbonate] | 5.17 | > 50 µM | 59.4 | 0.7 | 4.12 min | 0.07 | 1.67 | 5.75 | 5.74 | 
N#C[C@@]1(c2ccc3c(N)ncnn23)O[C@H](COC(=O)OCCCCCC(=O)O)[C@@H](O)[C@H]1O [Compound 140, 6-(((((2R,3S,4R,5R)-5-(4-aminopyrrolo[2,1-f][1,2,4]triazin-7-yl)-5-cyano-3,4-dihydroxytetrahydrofuran-2-yl)methoxy)carbonyl)oxy)hexanoic acid] | < 4.30 | > 50 µM | 1322.1 | < 0.3 | 783 min | 0.04 | 0.12 |  | < 4.30 | 
CC(C)OC(=O)[C@H](CCOC(=O)OC[C@H]1O[C@@](C#N)(c2ccc3c(N)ncnn23)[C@H](O)[C@@H]1O)N(C)C [Compound 146, isopropyl (2S)-4-[[(2R,3S,4R,5R)-5-(4-aminopyrrolo[2,1-f][1,2,4]triazin-7-yl)-5-cyano-3,4-dihydroxy-tetrahydrofuran-2-yl]methoxycarbonyloxy]-2-(dimethylamino)butanoate] | 5.11 | > 50 µM | 497.93 | 1.5 | 174 min | 0.06 | 7.15 |  | 5.08 | 
N#CC12CC(COC(=O)OC[C@H]3O[C@@](C#N)(c4ccc5c(N)ncnn45)[C@H](O)[C@@H]3O)(C1)C2 [Compound 121, ((2R,3S,4R,5R)-5-(4-aminopyrrolo[2,1-f][1,2,4]triazin-7-yl)-5-cyano-3,4-dihydroxytetrahydrofuran-2-yl)methyl ((3-cyanobicyclo[1.1.1]pentan-1-yl)methyl) carbonate] | 5.10 | > 50 µM | 107.7 | 1.1 | 1.58 min | 0.08 | 4.15 | 5.82 | 5.81 | 
COC1O[C@H]2[C@@H](O1)[C@](C#N)(c1ccc3c(N)ncnn13)O[C@@H]2COC(=O)OC(C)C (stereo partly drawn) [Compound 107, ((3aR,4R,6R,6aR)-6-(4-aminopyrrolo[2,1-f][1,2,4]triazin-7-yl)-6-cyano-2-methoxytetrahydrofuro[3,4-d][1,3]dioxol-4-yl)methyl isopropyl carbonate] | < 4.30 | > 50 µM |  | 2.5 |  |  |  | < 4.30 | < 4.30 | 
N#C[C@@]1(c2ccc3c(N)ncnn23)O[C@H](COC(=O)OCCCCC(=O)O)[C@@H](O)[C@H]1O [Compound 142, 5-(((((2R,3S,4R,5R)-5-(4-aminopyrrolo[2,1-f][1,2,4]triazin-7-yl)-5-cyano-3,4-dihydroxytetrahydrofuran-2-yl)methoxy)carbonyl)oxy)pentanoic acid] | < 4.30 | > 50 µM | 1584 | < 0.3 |  | 0.02 | 0.07 |  | < 4.30 | 789
N#C[C@@]1(c2ccc3c(N)ncnn23)O[C@H](COC(=O)OCC2CC2)[C@@H](O)[C@H]1O [Compound 125, ((2R,3S,4R,5R)-5-(4-aminopyrrolo[2,1-f][1,2,4]triazin-7-yl)-5-cyano-3,4-dihydroxytetrahydrofuran-2-yl)methyl (cyclopropylmethyl) carbonate] | 5.75 | > 50 µM | 12.2 | 1.1 | 0.582 min |  |  | 6.66 | 6.19 | 
CC(C)(C)OP(=O)(OCOC(=O)OC[C@H]1O[C@@](C#N)(c2ccc3c(N)ncnn23)[C@H](O)[C@@H]1O)OC(C)(C)C [Compound 110, ((2R,3S,4R,5R)-5-(4-aminopyrrolo[2,1-f][1,2,4]triazin-7-yl)-5-cyano-3,4-dihydroxytetrahydrofuran-2-yl)methyl (((di-tert-butoxyphosphoryl)oxy)methyl) carbonate] |  | > 50 µM |  | 1.7 |  |  |  | 4.97 | 4.69 | 
N#C[C@@]1(c2ccc3c(N)ncnn23)O[C@H](COC(=O)OCOP(=O)(O)O)[C@@H](O)[C@H]1O [Compound 40, ((2R,3S,4R,5R)-5-(4-aminopyrrolo[2,1-f][1,2,4]triazin-7-yl)-5-cyano-3,4-dihydroaytetrahydrofuran-2-yl)methyl ((phosphonooxy)methyl) carbonate] |  | > 50 µM |  | < 0.3 |  |  |  | 5.45 | 5.43 | 
N#C[C@@]1(c2ccc3c(N)ncnn23)O[C@H](COC(=O)OCCCC(=O)O)[C@@H](O)[C@H]1O [Compound 141, 4-(((((2R,3S,4R,5R)-5-(4-aminopyrrolo[2,1-f][1,2,4]triazin-7-yl)-5-cyano-3,4-dihydroxytetrahydrofuran-2-yl)methoxy)carbonyl)oxy)butanoic acid] | < 4.30 | > 50 µM | 902.37 | < 0.3 |  | 0.05 | 0.08 |  | < 4.30 | 789
CC1(COC(=O)OC[C@H]2O[C@@](C#N)(c3ccc4c(N)ncnn34)[C@H](O)[C@@H]2O)CCC1 [Compound 122, ((2R,3S,4R,5R)-5-(4-aminopyrrolo[2,1-f][1,2,4]triazin-7-yl)-5-cyano-3,4-dihydroxytetrahydrofuran-2-yl)methyl ((1-methylcyclobutyl)methyl) carbonate] | 6.15 | > 50 µM | 34.1 | 1.9 | 0.637 min |  |  | 6.54 | 5.98 | 
CCCCCCCCCCCCCCCCCCOC(=O)OC[C@H]1O[C@@](C#N)(c2ccc3c(N)ncnn23)[C@H](O)[C@@H]1O [Compound 126, ((2R,3S,4R,5R)-5-(4-aminopyrrolo[2,1-f][1,2,4]triazin-7-yl)-5-cyano-3,4-dihydroxytetrahydrofuran-2-yl)methyl octadecyl carbonate] | 5.79 | 27.7 µM | 79.1 | > 5.7 | 97.6 min | 0.01 | 0.03 |  | 6.29 | 
COC(=O)Nc1ncnn2c([C@]3(C#N)O[C@H](COC(=O)OCC(C)(C)C)[C@@H](OC(=O)OC)[C@H]3OC(=O)OC)ccc12 [Compound 103, methyl (7-((2R,3R,4R,5R)-2-cyano-3,4-bis((methoxycarbonyl)oxy)-5-((((neopentyloxy)carbonyl)oxy)methyl)tetrahydrofuran-2-yl)pyrrolo[2,1-f][1,2,4]triazin-4-yl)carbamate] | < 4.30 | > 50 µM |  | 3.2 |  |  |  | 4.68 | 4.75 | 
